± gives the expanded uncertainty stated by the source.
Assay: excess molar enthalpy (molar enthalpy of mixing); xn = mol fraction of the nth substance listed
Settings: 298.15 K, Liquid, Calvet calorimetry

CCCCCC(=O)OC(=O)CCCCC [caproic anhydride] + CCCCCCCCCCCC
Settings | excess molar enthalpy [kcal/mol]
x1 = 0.0213 | 0.0366 ± 0.000574
x1 = 0.0417 | 0.0668 ± 0.000932
x1 = 0.0612 | 0.0922 ± 0.00124
x1 = 0.08 | 0.114 ± 0.00151
x1 = 0.098 | 0.133 ± 0.00174
x1 = 0.1154 | 0.15 ± 0.00194
x1 = 0.1349 | 0.166 ± 0.00215
x1 = 0.1536 | 0.181 ± 0.00232
x1 = 0.1714 | 0.194 ± 0.00239
x1 = 0.1886 | 0.204 ± 0.00263
x1 = 0.205 | 0.214 ± 0.00263
x1 = 0.2208 | 0.222 ± 0.00287
x1 = 0.2374 | 0.23 ± 0.00287
x1 = 0.2533 | 0.236 ± 0.00311
x1 = 0.2625 | 0.244 ± 0.00311
x1 = 0.2688 | 0.247 ± 0.00311
x1 = 0.2754 | 0.249 ± 0.00311
x1 = 0.2824 | 0.252 ± 0.00311
x1 = 0.2897 | 0.254 ± 0.00311
x1 = 0.2974 | 0.257 ± 0.00335
x1 = 0.3056 | 0.26 ± 0.00335
x1 = 0.3134 | 0.262 ± 0.00335
x1 = 0.3215 | 0.264 ± 0.00335
x1 = 0.3301 | 0.266 ± 0.00335
x1 = 0.3392 | 0.268 ± 0.00335
x1 = 0.3471 | 0.27 ± 0.00335
x1 = 0.3555 | 0.272 ± 0.00335
x1 = 0.3642 | 0.273 ± 0.00335
x1 = 0.3733 | 0.275 ± 0.00359
x1 = 0.383 | 0.276 ± 0.00359
x1 = 0.3931 | 0.278 ± 0.00359
x1 = 0.4023 | 0.279 ± 0.00359
x1 = 0.412 | 0.279 ± 0.00359
x1 = 0.4222 | 0.28 ± 0.00359
x1 = 0.4329 | 0.28 ± 0.00359
x1 = 0.4442 | 0.281 ± 0.00359
x1 = 0.456 | 0.281 ± 0.00359
x1 = 0.4672 | 0.281 ± 0.00359
x1 = 0.4789 | 0.28 ± 0.00359
x1 = 0.4913 | 0.279 ± 0.00359
x1 = 0.5043 | 0.278 ± 0.00359
x1 = 0.5162 | 0.276 ± 0.00359
x1 = 0.5286 | 0.275 ± 0.00359
x1 = 0.5417 | 0.272 ± 0.00335
x1 = 0.5554 | 0.27 ± 0.00335
x1 = 0.5698 | 0.267 ± 0.00335
x1 = 0.585 | 0.263 ± 0.00335
x1 = 0.5987 | 0.259 ± 0.00335
x1 = 0.613 | 0.255 ± 0.00311
x1 = 0.628 | 0.251 ± 0.00311
x1 = 0.6438 | 0.245 ± 0.00311
x1 = 0.6604 | 0.239 ± 0.00311
x1 = 0.6778 | 0.232 ± 0.00287
x1 = 0.6941 | 0.224 ± 0.00287
x1 = 0.7112 | 0.217 ± 0.00263
x1 = 0.7291 | 0.208 ± 0.00263
x1 = 0.748 | 0.198 ± 0.00263
x1 = 0.7678 | 0.187 ± 0.00239
x1 = 0.7854 | 0.176 ± 0.00225
x1 = 0.8039 | 0.166 ± 0.00215
x1 = 0.8233 | 0.151 ± 0.00196
x1 = 0.8436 | 0.137 ± 0.00177
x1 = 0.8649 | 0.121 ± 0.00158
x1 = 0.8874 | 0.103 ± 0.00136
x1 = 0.9079 | 0.086 ± 0.00115
x1 = 0.9293 | 0.0676 ± 0.000932
x1 = 0.9517 | 0.0472 ± 0.000693
x1 = 0.9753 | 0.0247 ± 0.00043

CCCCC(=O)OC(=O)CCCC [pentanoic anhydride] + CCCCCCCCCCCCCC
Settings | excess molar enthalpy [kcal/mol]
x1 = 0.0319 | 0.0605 ± 0.00086
x1 = 0.0618 | 0.11 ± 0.00146
x1 = 0.0899 | 0.149 ± 0.00191
x1 = 0.1164 | 0.182 ± 0.00232
x1 = 0.1414 | 0.208 ± 0.00263
x1 = 0.165 | 0.232 ± 0.00287
x1 = 0.1873 | 0.251 ± 0.00311
x1 = 0.2126 | 0.271 ± 0.00335
x1 = 0.2363 | 0.287 ± 0.00359
x1 = 0.2587 | 0.3 ± 0.00382
x1 = 0.2798 | 0.311 ± 0.00382
x1 = 0.2997 | 0.32 ± 0.00406
x1 = 0.3186 | 0.328 ± 0.00406
x1 = 0.3364 | 0.335 ± 0.0043
x1 = 0.3569 | 0.342 ± 0.0043
x1 = 0.3714 | 0.35 ± 0.0043
x1 = 0.381 | 0.352 ± 0.0043
x1 = 0.3911 | 0.355 ± 0.00454
x1 = 0.402 | 0.357 ± 0.00454
x1 = 0.413 | 0.359 ± 0.00454
x1 = 0.4294 | 0.36 ± 0.00454
x1 = 0.4312 | 0.362 ± 0.00454
x1 = 0.4416 | 0.362 ± 0.00454
x1 = 0.4524 | 0.363 ± 0.00454
x1 = 0.4638 | 0.364 ± 0.00454
x1 = 0.4757 | 0.364 ± 0.00454
x1 = 0.4883 | 0.364 ± 0.00454
x1 = 0.5015 | 0.363 ± 0.00454
x1 = 0.5127 | 0.362 ± 0.00454
x1 = 0.5245 | 0.361 ± 0.00454
x1 = 0.5369 | 0.36 ± 0.00454
x1 = 0.5498 | 0.357 ± 0.00454
x1 = 0.5633 | 0.355 ± 0.00454
x1 = 0.5776 | 0.351 ± 0.0043
x1 = 0.5926 | 0.348 ± 0.0043
x1 = 0.6049 | 0.344 ± 0.0043
x1 = 0.6178 | 0.34 ± 0.0043
x1 = 0.6313 | 0.335 ± 0.0043
x1 = 0.6454 | 0.33 ± 0.00406
x1 = 0.6601 | 0.324 ± 0.00406
x1 = 0.6754 | 0.317 ± 0.00406
x1 = 0.6916 | 0.308 ± 0.00382
x1 = 0.7052 | 0.301 ± 0.00382
x1 = 0.7194 | 0.293 ± 0.00359
x1 = 0.7341 | 0.284 ± 0.00359
x1 = 0.7495 | 0.274 ± 0.00359
x1 = 0.7655 | 0.263 ± 0.00335
x1 = 0.7822 | 0.25 ± 0.00311
x1 = 0.7997 | 0.236 ± 0.00311
x1 = 0.8145 | 0.224 ± 0.00287
x1 = 0.8299 | 0.21 ± 0.00263
x1 = 0.8459 | 0.195 ± 0.00239
x1 = 0.8625 | 0.178 ± 0.00229
x1 = 0.8798 | 0.16 ± 0.00206
x1 = 0.8978 | 0.14 ± 0.00182
x1 = 0.9133 | 0.121 ± 0.00158
x1 = 0.9294 | 0.101 ± 0.00134
x1 = 0.9461 | 0.0789 ± 0.00108
x1 = 0.9634 | 0.0549 ± 0.000789
x1 = 0.9814 | 0.0287 ± 0.000478

From the NIST ThermoML archive (doi:10.1021/je900598y)
